# Assay: Inhibition of ACAT2 (unknown origin)
structure (smiles),measurement,value
COc1ccc([C@@H]2O[C@H](c3ccc(OC(C)C(O)c4ccc5c(c4)COC5)c(OC)c3)[C@H](C)[C@@H]2C)cc1OC (stereo partly specified),IC50,124 µM
